The values that follow come from patent US12551451B2, “Compositions and methods for delivering molecules” (SunVax mRNA Therapeutics Inc., priority 2023, dated 2026).

The series is described as follows: LNP Characteristics (size, PDI, encapsulation efficiency) of LNPs formulated with novel ionizable lipids. The series is classed as physicochemical. To be noted: LNP formulated with the ionizable lipid, DOPE, Cholesterol, DMG-PEG2000. As to the method:
LNPs formulated using the novel ionizable lipids of the disclosure or control ionizable lipids MC3 and SM-102 were synthesized by mixing the lipid components of the LNP in ethanol at a predetermined molar ratio (ionizable lipid/DOPE/Cholesterol/DMG-PEG2000=30/15/50/1.5) to prepare an organic phase. Sa-mRNA encoding firefly luciferase (LUC) or green fluorescent protein (GFP) was diluted in 50 mM citrate buffer (pH 4.5, Fisher) to prepare an aqueous phase. The sa-mRNA was stored at −80° C. and was thawed on ice prior to use. The ethanol and aqueous phases were mixed at a 1:3 ratio by pipette with the N/P=4.2/1. The resultant LNPs were purified by ultrafiltration (100,000 cut-off, MilliporeSigma™ Amicon™ Ultra-15 Centrifugal Filter Units) at 4° C. prior to transfection into a cell, such as a T-cell.
LNPs formulated using novel ionizable lipids of the disclosure were synthesized using the procedure described in Example 2 and characterized. Table 4 below show the properties of each LNP formulated using a novel ionizable lipid of the disclosure.
For the compound `CCCCCCCCCCCC(=O)N(CC(CCCCCCCC)CCCCCCCCCC)C(CC1CCN(C)CC1)C(=O)NC1CCCCCC1` (stereo not drawn) [Lipid P40C10, N-(1-(cycloheptylamino)-3-(1-methylpiperidin-4-yl)-1-oxopropan-2-yl)-N-(2-octyldodecyl)dodecanamide], the “Avg. Encapsulation Efficiency (EE) %” value stood at 99.1%, the “Avg. PDI” value is on record as 0.25 and the “Avg. Size” value was found to be 192.9 nm.
On to `CCCCCCCCCCCC(=O)N(C(CCCCCCCCCCC)CCCCCCCCCCC)C(CC1CCN(C)CC1)C(=O)NC1CCCCCC1` (stereo not drawn) [Lipid P40C11, N-(1-(cycloheptylamino)-3-(1-methylpiperidin-4-yl)-1-oxopropan-2-yl)-N-(tricosan-12-yl)dodecanamide], for which the “Avg. Encapsulation Efficiency (EE) %” value was found to be 96.6%, the “Avg. PDI” value is listed as 0.14 and the “Avg. Size” value is 189.3 nm.
In the same order, the values of `CCCCCCCCCCCCCCC(=O)N(C(CCCCCCC)CCCCCCC)C(CC1CCN(C)CC1)C(=O)NC1CCCCCC1` (stereo not drawn) [Lipid P40D7, N-(1-(cycloheptylamino)-3-(1-methylpiperidin-4-yl)-1-oxopropan-2-yl)-N-(pentadecan-8-yl)pentadecanamide] are 98.2%, 0.18 and 149.2 nm.
On the same counts, the results for `CCCCCCCCCCCCC(=O)N(CC(CCCCCCCCCC)CCCCCCCCCCCC)C(CC1CCN(C)CC1)C(=O)NC(C)(C)C` (stereo not drawn) [Lipid P51C12, N-(1-(tert-butylamino)-3-(1-methylpiperidin-4-yl)-1-oxopropan-2-yl)-N-(2-decyltetradecyl)tridecanamide] are 98.1%, 0.26 and 186.5 nm.
In the same order, the values of `CCCCCCCCCCCC(CCCCCCCCCCC)N(C(=O)CCCCCCCCC)C(C(=O)NC(C)(C)C)C1CCN(CC)CC1` (stereo not drawn) [Lipid P53A5, N-(2-(tert-butylamino)-1-(1-ethylpiperidin-4-yl)-2-oxoethyl)-N-(tricosan-12-yl)decanamide] are 97.9%, 0.10 and 173.8 nm.
Regarding `CCCCCCCCCCCCC(CCCCCCCCCC)CN(C(=O)CCCCCCCCC)C(C(=O)NC(C)(C)C)C1CCN(CC)CC1` (stereo not drawn) [Lipid P53A6, N-(2-(tert-butylamino)-1-(1-ethylpiperidin-4-yl)-2-oxoethyl)-N-(2-decyltetradecyl)decanamide], the “Avg. Encapsulation Efficiency (EE) %” value came out at 98.3%, the “Avg. PDI” value was found to be 0.16 and the “Avg. Size” value worked out at 175.6 nm.
In the same order, the values of `CCCCCCCCCCCCC(CCCCCCCCCC)CN(C(=O)CCCCCCCCCC)C(C(=O)NC12CC3CC(CC(C3)C1)C2)C1CCN(CC)CC1` (stereo not drawn) [Lipid P54B6, N-(2-(((1s,3s)-adamantan-1-yl)amino)-1-(1-ethylpiperidin-4-yl)-2-oxoethyl)-N-(2-decyltetradecyl)undecanamide] are 93.4%, 0.10 and 181.2 nm.
On the same counts, the results for `CCCCCCCCCCCCCCCC(=O)N(C(CCCCCCC)CCCCCCC)C(C(=O)NC12CC3CC(CC(C3)C1)C2)C1CCN(CC)CC1` (stereo not drawn) [Lipid P56A1, N-(2-(((1s,3s)-adamantan-1-yl)amino)-1-(1-ethylpiperidin-4-yl)-2-oxoethyl)-N-(pentadecan-8-yl)palmitamide] are 89.1%, 0.12 and 186.3 nm.
In the same order, the values of `CCCCCCCCCCCCCCCC(=O)N(C(CCCCCCCC)CCCCCCCC)C(C(=O)NC12CC3CC(CC(C3)C1)C2)C1CCN(CC)CC1` (stereo not drawn) [Lipid P56A2, N-(2-(((1s,3s)-adamantan-1-yl)amino)-1-(1-ethylpiperidin-4-yl)-2-oxoethyl)-N-(heptadecan-9-yl)palmitamide] are 81.5%, 0.15 and 154.4 nm.
On to `CCCCCCCCCCCCCCCCC(=O)N(C(CCCCCCC)CCCCCCC)C(C(=O)NC12CC3CC(CC(C3)C1)C2)C1CCN(CC)CC1` (stereo not drawn) [Lipid P56B1, N-(2-(((1s,3s)-adamantan-1-yl)amino)-1-(1-ethylpiperidin-4-yl)-2-oxoethyl)-N-(pentadecan-8-yl)heptadecanamide], for which the “Avg. Encapsulation Efficiency (EE) %” value worked out at 90.6%, the “Avg. PDI” value came to 0.10 and the “Avg. Size” value came out at 173.2 nm.
For the compound `CCCCCCCC/C=C\CCCCCCCC(=O)N(C(CCCCCCC)CCCCCCC)C(C(=O)NC1CCCCCC1)C1CCN(CC)CC1` (stereo not drawn) [Lipid P149A1, N-(2-(cycloheptylamino)-1-(1-ethylpiperidin-4-yl)-2-oxoethyl)-N-(pentadecan-8-yl)oleamide], the “Avg. Encapsulation Efficiency (EE) %” value came to 92.9%, the “Avg. PDI” value worked out at 0.10 and the “Avg. Size” value is given as 219 nm.
Take `CCCCCCCC/C=C\CCCCCCCC(=O)N(C(CCCCCCCC)CCCCCCCC)C(C(=O)NC1CCCCCC1)C1CCN(CC)CC1` (stereo not drawn) [Lipid P149A2, N-(2-(cycloheptylamino)-1-(1-ethylpiperidin-4-yl)-2-oxoethyl)-N-(heptadecan-9-yl)oleamide]: the “Avg. Encapsulation Efficiency (EE) %” value is listed as 92.0%, the “Avg. PDI” value amounted to 0.10 and the “Avg. Size” value is 218 nm.
On the same counts, the results for `CCCCCC/C=C\CCCCCCCC(=O)N(C(CCCCCCCC)CCCCCCCC)C(C(=O)NC1CCCCCC1)C1CCN(CC)CC1` (stereo not drawn) [Lipid P149C2, (Z)-N-(2-(cycloheptylamino)-1-(1-ethylpiperidin-4-yl)-2-oxoethyl)-N-(heptadecan-9-yl)hexadec-9-enamide] are 90.1%, 0.15 and 176 nm.
On the same counts, the results for `CCCCCCCCCCCCOC(=O)CCC(=O)N(C(CCCCCCC)CCCCCCC)C(C(=O)NC1CCCCCC1)C1CCN(CC)CC1` (stereo not drawn) [Lipid P153C1, dodecyl 4-((2-(cycloheptylamino)-1-(1-ethylpiperidin-4-yl)-2-oxoethyl)(pentadecan-8-yl)amino)-4-oxobutanoate] are 90.1%, 0.12 and 148 nm.
In the same order, the values of `CCCCCCCCCCCCOC(=O)CCC(=O)N(C(CCCCCCCCC)CCCCCCCCC)C(C(=O)NC1CCCCCC1)C1CCN(CC)CC1` (stereo not drawn) [Lipid P153C3, dodecyl 4-((2-(cycloheptylamino)-1-(1-ethylpiperidin-4-yl)-2-oxoethyl)(nonadecan-10-yl)amino)-4-oxobutanoate] are 86.8%, 0.07 and 86.8 nm.
In the case of `CCCCCCCCCCCCOC(=O)CCC(=O)N(C(CCCCCCCCCCC)CCCCCCCCCCC)C(C(=O)NC1CCCCCC1)C1CCN(CC)CC1` (stereo not drawn) [Lipid P153C5, dodecyl 4-((2-(cycloheptylamino)-1-(1-ethylpiperidin-4-yl)-2-oxoethyl)(tricosan-12-yl)amino)-4-oxobutanoate], the “Avg. Encapsulation Efficiency (EE) %” value is given as 62.0%, the “Avg. PDI” value was determined as 0.14 and the “Avg. Size” value amounted to 169 nm.
In the same order, the values of `CCCCCCCCCCCCOC(=O)CCC(=O)N(CC(CCCCCCCC)CCCCCCCCCC)C(C(=O)NC1CCCCCC1)C1CCCN(CC)C1` (stereo not drawn) [Lipid P159C10, dodecyl 4-((2-(cycloheptylamino)-1-(1-ethylpiperidin-3-yl)-2-oxoethyl)(2-octyldodecyl)amino)-4-oxobutanoate] are 95.8%, 0.13 and 174 nm.
In the same order, the values of `CCCCCCCCCCC(CCCCCCCC)CN(C(=O)CCC(C)C1CCC2C3CC(O)C4CC(O)CCC4(C)C3CCC12C)C(CC1CCN(C)CC1)C(=O)NC12CC3CC(CC(C3)C1)C2` (stereo not drawn) [Lipid P161F10, N-(1-(((1s,3s)-adamantan-1-yl)amino)-3-(1-methylpiperidin-4-yl)-1-oxopropan-2-yl)-4-(3,6-dihydroxy-10,13-dimethylhexadecahydro-1H-cyclopenta[a]phenanthren-17-yl)-N-(2-octyldodecyl)pentanamide] are 87.9%, 0.19 and 225 nm.
